Source: patent EP2951180B1, “2,6,7,8 SUBSTITUTED PURINES AS HDM2 INHIBITORS” (Merck Sharp & Dohme Corp., priority 2013, dated 2014)

Biological target: T1, HDM2 (Homo sapiens, UniProt Q00987)
T1 construct: Thioredoxin (N); made in house; host or cells: E. coli strain BL21(DE3)Rosetta
Test: HDM2 FRET assay (inhibition of binding of FITC labeled p53-pocket peptide to HDM2)
Details: Table 11; read-out: FRET IC50
In short: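 Compounds were tested in 10-point serial dilution against 0.5 nM recombinant HDM2 binding 3 nM fluorescein-labeled p53-pocket peptide. Detection used 0.25 nM terbium cryptate anti-6xHis antibody in PBS buffer containing 0.01% BSA and 0.01% Tween-20.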

T1 sequence (Q00987 17-125): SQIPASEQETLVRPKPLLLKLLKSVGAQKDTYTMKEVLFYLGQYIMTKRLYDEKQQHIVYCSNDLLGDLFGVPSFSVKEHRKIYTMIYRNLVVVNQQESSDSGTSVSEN

| SMILES | IC50 [nM] |
| --- | --- |
| C[C@@H](Nc1nc(-c2noc(=O)[nH]2)nc2nc(N3CCOC[C@@H]3c3ccccc3)n(C[C@H]3CC[C@H](C)CC3)c12)C1CCC1 [Example 11.67, 3-(6-{[(1R)-1-cyclobutylethyl]amino}-7-[(trans-4-methylcyclohexyl)methyl]-8-[(3S)-3-phenylmorpholin-4-yl]-7H-purin-2-yl)-1,2,4-oxadiazol-5(4H)-one] | 10.8 |
| C[C@@H](Nc1nc(-c2noc(=O)[nH]2)nc2nc(N(C)Cc3ccncn3)n(C[C@H]3CC[C@H](C)CC3)c12)C1CCC1 [Example 11.70, 3-(6-{[(1R)-1-cyclobutylethyl]amino}-7-[(trans-4-methylcyclohexyl)methyl]-8-[methyl(pyrimidin-4-ylmethyl)amino]-7H-purin-2-yl)-1,2,4-oxadiazol-5(2H)-one] | 22.8 |
| C[C@@H](Nc1nc(-c2noc(=O)[nH]2)nc2nc(N(C)Cc3cnn(C)c3)n(C[C@H]3CC[C@H](C)CC3)c12)C1CCC1 [Example 11.71, 3-(6-{[(1R)-1-cyclobutylethyl]amino}-7-[(trans-4-methylcyclohexyl)methyl]-8-{methyl[(1-methyl-1H-pyrazol-4-yl)methyl]amino}-7H-purin-2-yl)-1,2,4-oxadiazol-5(2H)-one] | 24.3 |
| C[C@@H](Nc1nc(-c2noc(=O)[nH]2)nc2nc(N(C)Cc3cnccn3)n(C[C@H]3CC[C@H](C)CC3)c12)C1CCC1 [Example 11.72, 3-(6-{[(1R)-1-cyclobutylethyl]amino}-7-[(trans-4-methylcyclohexyl)methyl]-8-[methyl(pyrazin-2-ylmethyl)amino]-7H-purin-2-yl)-1,2,4-oxadiazol-5(2H)-one] | 5.98 |
| C[C@@H](Nc1nc(-c2noc(=O)[nH]2)nc2nc(N(C)Cc3cncs3)n(C[C@H]3CC[C@H](C)CC3)c12)C1CCC1 [Example 11.73, 3-(6-{[(1R)-1-cyclobutylethyl]amino}-7-[(trans-4-methylcyclohexyl)methyl]-8-[methyl(1,3-thiazol-5-ylmethyl)amino]-7H-purin-2-yl)-1,2,4-oxadiazol-5(2H)-one] | 11.5 |
| C[C@@H](Nc1nc(-c2noc(=O)[nH]2)nc2nc(N(C)Cc3cscn3)n(C[C@H]3CC[C@H](C)CC3)c12)C1CCC1 [Example 11.74, 3-(6-{[(1R)-1-cyclobutylethyl]amino}-7-[(trans-4-methylcyclohexyl)methyl]-8-[methyl(1,3-thiazol-4-ylmethyl)amino]-7H-purin-2-yl)-1,2,4-oxadiazol-5(2H)-one] | 133 |
| C[C@@H](Nc1nc(-c2noc(=O)[nH]2)nc2nc(N(C)Cc3noc(C4CC4)n3)n(C[C@H]3CC[C@H](C)CC3)c12)C1CCC1 [Example 11.75, 3-(6-{[(1R)-1-cyclobutylethyl]amino}-8-{[(5-cyclopropyl-1,2,4-oxadiazol-3-yl)methyl](methyl)amino}-7-[(trans-4-methylcyclohexyl)methyl]-7H-purin-2-yl)-1,2,4-oxadiazol-5(2H)-one] | 9.58 |
| Cc1csc(CN(C)c2nc3nc(-c4noc(=O)[nH]4)nc(N[C@H](C)C4CCC4)c3n2C[C@H]2CC[C@H](C)CC2)n1 [Example 11.76, 3-(6-{[(1R)-1-cyclobutylethyl]amino}-7-[(trans-4-methylcyclohexyl)methyl]-8-{methyl[(4-methyl-1,3-thiazol-2-yl)methyl]amino}-7H-purin-2-yl)-1,2,4-oxadiazol-5(2H)-one] | 8.19 |
| Cc1ccc(C2CCCCN2c2nc3nc(-c4noc(=O)[nH]4)nc(N[C@H](C)C4CCC4)c3n2C[C@H]2CC[C@H](C)CC2)o1 (stereo partly drawn) [Example 11.78, 3-(6-{[(1R)-1-cyclobutylethyl]amino}-7-[(trans-4-methylcyclohexyl)methyl]-8-[2-(5-methylfuran-2-yl)piperidin-1-yl]-7H-purin-2-yl)-1,2,4-oxadiazol-5(4H)-one] | 37.1 |
| C[C@@H](Nc1nc(-c2noc(=O)[nH]2)nc2nc(N3CCS(=O)(=O)CC3)n(C[C@H]3CC[C@H](C)CC3)c12)C1CCC1 [Example 11.79, 3-(6-{[(1R)-1-cyclobutylethyl]amino}-8-(1,1-dioxidothiomorpholin-4-yl)-7-[(trans-4-methylcyclohexyl)methyl]-7H-purin-2-yl)-1,2,4-oxadiazol-5(2H)-one] | 33.3 |
| C[C@@H](Nc1nc(-c2noc(=O)[nH]2)nc2nc(N3CCC(F)(F)CC3)n(C[C@H]3CC[C@H](C)CC3)c12)C1CCC1 [Example 11.80, 3-(6-{[(1R)-1-cyclobutylethyl]amino}-8-(4,4-difluoropiperidin-1-yl)-7-[(trans-4-methylcyclohexyl)methyl]-7H-purin-2-yl)-1,2,4-oxadiazol-5(2H)-one] | 25.9 |
| C[C@H]1CC[C@H](Cn2c(N3CCOC[C@H]3c3ccccc3)nc3nc(-c4noc(=O)[nH]4)nc(N4CCCCC4C4CCC4)c32)CC1 (stereo partly drawn) [Example 11.81, 3-{6-(2-cyclobutylpiperidin-1-yl)-7-[(trans-4-methylcyclohexyl)methyl]-8-[(3R)-3-phenylmorpholin-4-yl]-7H -purin-2-yl}-1,2,4-oxadiazol-5(4H)-one] | 483 |
| C[C@H]1CC[C@H](Cn2c(N3CCOC[C@H]3c3ccccc3)nc3nc(-c4noc(=O)[nH]4)nc(N4CCCCC4C4CCC4)c32)CC1 (stereo partly drawn) [Example 11.82, 3-{6-(2-cyclobutylpiperidin-1-yl)-7-[(trans-4-methylcyclohexyl)methyl]-8-[(3R)-3-phenylmorpholin-4-yl]-7H -purin-2-yl}-1,2,4-oxadiazol-5(4H)-one] | 6.45 |
| CC(C)C[C@H]1CCCCN1c1nc2nc(-c3noc(=O)[nH]3)nc(N[C@H](C)C3CCC3)c2n1C[C@H]1CC[C@H](C)CC1 [Example 11.83, 3-(6-{[(1R)-1-cyclobutylethyl]amino}-7-[(trans-4-methylcyclohexyl)methyl]-8-[(2R)-2-(2-methylpropyl)piperidin-1-yl]-7H-purin-2-yl)-1,2,4-oxadiazol-5(4H)-one] | 11.5 |
| CC(C)C[C@@H]1CCCCN1c1nc2nc(-c3noc(=O)[nH]3)nc(N[C@H](C)C3CCC3)c2n1C[C@H]1CC[C@H](C)CC1 [Example 11.84, 3-(6-{[(1R)-1-cyclobutylethyl]amino}-7-[(trans-4-methylcyclohexyl)methyl]-8-[(2S)-2-(2-methylpropyl)piperidin-1-yl]-7H-purin-2-yl)-1,2,4-oxadiazol-5(4H)-one] | 3.07 |
| CC(Nc1nc2nc(-c3noc(=O)[nH]3)nc(N[C@H](C)C3CCC3)c2n1C[C@H]1CC[C@H](C)CC1)c1cncnc1 (stereo partly drawn) [Example 11.85, 3-(6-{[(1R)-1-cyclobutylethyl]amino}-7-[(trans-4-methylcyclohexyl)methyl]-8-[(1-pyrimidin-5-ylethyl)amino]-7H-purin-2-yl)-1,2,4-oxadiazol-5(2H)-one] | 4.97 |
| Cc1nc(C(C)Nc2nc3nc(-c4noc(=O)[nH]4)nc(N[C@H](C)C4CCC4)c3n2C[C@H]2CC[C@H](C)CC2)cs1 (stereo partly drawn) [Example 11.86, 3-(6-{[(1R)-1-cyclobutylethyl]amino}-7-[(trans-4-methylcyclohexyl)methyl]-8-{[1-(2-methyl-1,3-thiazol-4-yl)ethyl]amino} -7H-purin-2-yl)-1,2,4-oxadiazol-5(2H)-one] | 3.39 |
| CC(Nc1nc2nc(-c3noc(=O)[nH]3)nc(N[C@H](C)C3CCC3)c2n1C[C@H]1CC[C@H](C)CC1)c1ccno1 (stereo partly drawn) [Example 11.87, 3-(6-{[(1R)-1-cyclobutylethyl]amino}-8-[(1-isoxazol-5-ylethyl)amino]-7-[(trans-4-methylcyclohexyl)methyl]-7H-purin-2-yl)-1,2,4-oxadiazol-5(2H)-one] | 105 |
| CC(Nc1nc2nc(-c3noc(=O)[nH]3)nc(N[C@H](C)C3CCC3)c2n1C[C@H]1CC[C@H](C)CC1)c1cscn1 (stereo partly drawn) [Example 11.88, 3-(6-{[(1R)-1-cyclobutylethyl]amino}-7-[(trans-4-methylcyclohexyl)methyl]-8-{[1-(1,3-thiazol-4-yl)ethyl]amino}-7H-purin-2-yl)-1,2,4-oxadiazol-5(2H)-one] | 3.83 |
| CC(Nc1nc2nc(-c3noc(=O)[nH]3)nc(N[C@H](C)C3CCC3)c2n1C[C@H]1CC[C@H](C)CC1)c1ccncn1 (stereo partly drawn) [Example 11.89, 3-(6-{[(1R)-1-cyclobutylethyl]amino}-7-[(trans-4-methylcyclohexyl)methyl]-8-[(1-pyrimidin-4-ylethyl)amino]-7H-purin-2-yl)-1,2,4-oxadiazol-5(2H)-one] | 13.8 |
| Cc1noc(C(C)Nc2nc3nc(-c4noc(=O)[nH]4)nc(N[C@H](C)C4CCC4)c3n2C[C@H]2CC[C@H](C)CC2)n1 (stereo partly drawn) [Example 11.90, 3-(6-{[(1R)-1-cyclobutylethyl]amino}-7-[(trans-4-methylcyclohexyl)methyl]-8-{[1-(3-methyl-1,2,4-oxadiazol-5-yl)ethyl]amino} -7H-purin-2-yl)-1,2,4-oxadiazol-5(2H)-one] | 4.04 |
| CC(Nc1nc2nc(-c3noc(=O)[nH]3)nc(N[C@H](C)C3CCC3)c2n1C[C@H]1CC[C@H](C)CC1)c1cncnc1 (stereo partly drawn) [Example 11.92, 3-(6-{[(1R)-1-cyclobutylethyl]amino}-7-[(trans-4-methylcyclohexyl)methyl]-8-[(1-pyrimidin-5-ylethyl)amino]-7H-purin-2-yl)-1,2,4-oxadiazol-5(2H)-one] | 11.7 |
| C[C@@H]1COCCN1c1nc2nc(-c3n[nH]c(=O)o3)nc(N[C@H](C)C3CCC3)c2n1C[C@H]1CC[C@H](C)CC1 [Example 11.97, 5-(6-{[(1R)-1-cyclobutylethyl]amino}-7-[(trans-4-methylcyclohexyl)methyl]-8-[(3R)-3-methylmorpholin-4-yl]-7H-purin-2-yl)-1,3,4-oxadiazol-2(3H)-one] | 1.94 |
| C[C@@H](Nc1nc(-c2noc(=O)[nH]2)nc2nc(N3CCOCC3(C)C)n(C[C@H]3CC[C@H](C)CC3)c12)C1CCC1 [Example 11.98, 3-(6-{[(1R)-1-cyclobutylethyl]amino}-8-(3,3-dimethylmorpholin-4-yl)-7-[(trans-4-methylcyclohexyl)methyl]-7H-purin-2-yl)-1,2,4-oxadiazol-5(4H)-one] | 2.52 |
